Experimental data: patent publication US9994548B2, “Phenyl-substituted nicotinic ligands, and methods of use thereof” (Georgetown University, priority 2011, dated 2018)

Assays:
locomotor activity = experiment: Locomotor activity in figure-8 maze; format: in vivo, rat; conditions: 1-hour session
Experimental: The studies were conducted in accordance with the regulations outlined by the Duke University Animal Care and Use Committee. The rats housed in approved standard laboratory conditions in a Duke University vivarium facility near the testing room to minimize stress induced by transporting the rats. The rats were kept on a 12:12 reverse day/night cycle, so that they were in their active phase during behavioral testing. The rats in the drug iv self-administration studies were singly housed to prevent them from damaging each other's catheters. The rats in the locomotor activity studies were housed in groups of 2-3. All rats were allowed access to water at all times; the rats in the nicotine-self-administration study were fed daily approximately 30 minutes after completing the sessions while those in the locomotor activity study had continuous access to food.
VMY-2-95 was injected s.c. 10 minutes before testing in a volume of 1 mL/kg of saline. The doses (0, 0.3, 1 and 3 mg/kg) were given in a counterbalanced order with at least two days between successive injections.
Another set of rats (N=12) was tested for acute VMY-2-95 effects on locomotor activity in a figure-8 maze over the course of a 1-hour session (see FIG. 10). […] Numbers of photobeam breaks were recorded for five minutes blocks over the one-hour session. […]

α7 nAChR = biological target: T1, α7 nAChR (Rattus norvegicus, UniProt Q05941); experiment: [3H]-epibatidine radioligand competition binding assay; conditions: competition against [3H]-epibatidine
T1 construct: expressed in transfected cells
Experimental: (§1) Stably transfected cell lines, tissue culture conditions, membrane preparation procedures and binding assays were described previously. Briefly, cultured cells at >80% confluence were removed from their flasks (80 cm^2) with a disposable cell scraper and placed in 10 mL of 50 mM Tris.HCl buffer (pH 7.4, 4° C.). The cell suspension was centrifuged at 10,000×g for 5 min and the pellet was collected. The cell pellet was then homogenized in 10 mL buffer with a polytron homogenizer and centrifuged at 36,000 g for 10 min at 4° C. The membrane pellet was resuspended in fresh buffer, and aliquots of the membrane preparation were used for binding assays. The concentration of [^3H]-epibatidine used was ˜500 pM for competition binding assays. […] Bound and free ligands were separated by vacuum filtration through Whatman GF/C filters treated with 0.5% polyethylenimine. The filter-retained radioactivity was measured by liquid scintillation counting. Specific binding was defined as the difference between total binding and nonspecific binding. Data from competition binding assays were analyzed using Prism 5 (GraphPad Software, San Diego, Calif.).
(§2) The in vitro binding affinities of the new ligands were measured for defined receptor subtypes (α2β2, α2β4, α3β2, α3β4, α4β2, α4β4, α6β2, α6β4, and α7) expressed in stably transfected cell lines. [^3H]Epibatidine ([^3H]EB) binds to the agonist recognition site of all of the defined receptor subtypes with high affinities. Rat forebrain homogenates were included to allow comparison between the heterologous and native α4β2 and α7 nAChRs. See FIG. 18 for binding affinity values (Ki) of the ligands at the three major nAChR subtypes (α3β4, […], and α7).
(§3) The binding affinities of all compounds synthesized for the receptor subtypes were examined in binding competition studies against [^3H]-epibatidine.

α3β4 nAChR = biological target: T2, α3β4 nAChR (Rattus norvegicus, UniProt P04757+P12392); experiment: as above; conditions: competition against [3H]-epibatidine, stably transfected cell membranes; read-out: Ki α3β4
T2 construct: expressed in transfected cells; host or cells: HEK 293 (KXα3β4R2)
Experimental: as §1, §2, §3

α4β2 nAChR = biological target: T3, α4β2 nAChR (Rattus norvegicus, UniProt P09483+P12390); experiment: as above; conditions: competition against [3H]-epibatidine, stably transfected cell membranes; read-out: Ki α4β2
T3 construct: expressed in transfected cells
Experimental: as §1, §2, §3

In the case of C(#Cc1cncc(OC[C@@H]2CCN2)c1)c1ccccc1 [VMY-2-95, (S)-3-(azetidin-2-ylmethoxy)-5-(phenylethynyl)pyridine], the “dose at peak of increased locomotor activity” value (locomotor activity; s.c.) is reported as 1 mg/kg, the locomotor activity (locomotor activity; three doses tested (0.3, 1, 3 mg/kg s.c.)) is reported as “significantly increased” and the Ki (α7 nAChR) is reported as 580 nM. The Ki (α3β4 nAChR) was 650 nM and the Ki (α4β2 nAChR) was 0.049 nM.
